Experimental data published in PubChem BioAssay AID1645866 (Buhrlage Lab, Dana-Farber Cancer Institute and Novartis …, 2021).
The source made the active and inactive calls.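 Rule for the calls: active = in confirmatory dose-response testing, peak deubiquitinase inhibition of 30% or more; inactive = the rest.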

Target: Ubiquitin carboxyl-terminal hydrolase 28 (Homo sapiens) (UniProt Q96RU2)
Experiment: Ubiquitin-specific peptidase 28 DUB inhibitors, biochemical concentration-dependence assay, validation of primary screening hits (AID 1645866)
Conditions: purified USP28, ubiquitin-rhodamine fluorescence, 30 min

Ubiquitin carboxyl-terminal hydrolase 28 (Homo sapiens), sequence (Q96RU2 whole entry, looked up): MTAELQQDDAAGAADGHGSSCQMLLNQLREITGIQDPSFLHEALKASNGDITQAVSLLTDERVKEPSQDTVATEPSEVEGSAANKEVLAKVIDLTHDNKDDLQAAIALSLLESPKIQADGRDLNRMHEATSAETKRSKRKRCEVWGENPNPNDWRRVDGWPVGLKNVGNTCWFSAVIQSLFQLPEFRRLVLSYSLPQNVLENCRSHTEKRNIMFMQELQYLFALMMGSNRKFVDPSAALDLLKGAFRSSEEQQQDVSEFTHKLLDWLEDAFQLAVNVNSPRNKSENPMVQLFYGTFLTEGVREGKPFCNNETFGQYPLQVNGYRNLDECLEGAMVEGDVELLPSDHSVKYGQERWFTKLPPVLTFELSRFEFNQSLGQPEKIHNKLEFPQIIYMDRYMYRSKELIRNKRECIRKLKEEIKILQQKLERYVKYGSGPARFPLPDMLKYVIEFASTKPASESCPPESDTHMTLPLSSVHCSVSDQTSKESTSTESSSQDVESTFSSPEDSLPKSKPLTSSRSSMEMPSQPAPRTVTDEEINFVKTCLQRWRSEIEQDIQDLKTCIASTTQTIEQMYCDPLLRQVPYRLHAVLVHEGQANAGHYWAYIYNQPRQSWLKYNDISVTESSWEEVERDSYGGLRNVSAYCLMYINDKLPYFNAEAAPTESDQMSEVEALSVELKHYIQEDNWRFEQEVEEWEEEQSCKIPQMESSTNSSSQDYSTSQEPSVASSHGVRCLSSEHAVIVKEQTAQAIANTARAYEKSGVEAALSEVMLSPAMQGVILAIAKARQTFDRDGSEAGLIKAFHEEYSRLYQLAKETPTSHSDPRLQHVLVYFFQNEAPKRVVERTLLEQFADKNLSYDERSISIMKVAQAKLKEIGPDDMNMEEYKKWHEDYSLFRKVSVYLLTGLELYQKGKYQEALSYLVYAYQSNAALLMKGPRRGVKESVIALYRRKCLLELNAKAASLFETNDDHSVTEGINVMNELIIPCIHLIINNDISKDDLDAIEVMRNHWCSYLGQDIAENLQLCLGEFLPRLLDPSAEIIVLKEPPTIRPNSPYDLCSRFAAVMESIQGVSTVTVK

SMILES | IC50
Cc1ccc(C)c(S(=O)(=O)N2CCN(c3ccc4nnc(-c5ccco5)n4n3)CC2)c1 | > 50 µM (inactive)
Cc1c(-c2nc(-c3ccccc3Cl)no2)nnn1-c1cccc(F)c1 | 14.2 µM
N#Cc1ccccc1Cn1c(=O)n(CCCCC(=O)NCCc2ccccc2)c(=O)c2ccccc21 | 19.6 µM
Cc1csc2ncc(C(=O)N3CCN(c4ccccc4F)CC3)c(=O)n12 | > 50 µM (inactive)
CCOc1ccc(-n2c(SCC(=O)N3CC(=O)Nc4ccccc43)nnc2-c2ccc(OC)cc2)cc1 | 25.2 µM
CC(=O)c1cccc(NC(=O)c2ccc(N3CCCCC3)nn2)c1 | 32.4 µM
O=C(Nc1ccc(N2CCOCC2)cc1)c1cc(=O)[nH]c2ccccc12 | 25.4 µM
Cn1nc(-c2nc(-c3ccccc3)no2)c2c1CCN(C(=O)C1CC1)C2 | > 50 µM (inactive)
O=C(Nc1ccccc1)C1CCCN(C(=O)c2cc3ccccc3[nH]2)C1 (stereo not given) | 39.1 µM
O=C(NCCCc1nc2ccccc2n1Cc1c(Cl)cccc1Cl)c1ccco1 | 25.3 µM
Cn1c(C(=O)NCc2ccccn2)cc2c(=O)[nH]c3ccccc3c21 | > 50 µM (inactive)
O=C(COc1ccc(F)cc1)Nc1cnc(-c2ccc(Cl)cc2)nc1 | 34.2 µM
O=C1Oc2nc3ccccc3cc2CN1Cc1ccco1 | 18.4 µM
Cc1oc(-c2ccc(C(=O)NCC3COCCO3)cc2)nc1CN1CCc2ccccc21 (stereo not given) | 38.8 µM
COc1ccccc1NC(=O)Cn1cc(C(=O)c2ccc(C)cc2)c(=O)c2ccccc21 | 21.8 µM
Cc1ccc(Cn2nnc(-c3ccccc3Cl)n2)cc1 | 13.9 µM
O=C1CC(c2ccco2)Cc2[nH]c(=O)c(-c3nc(-c4ccc(Cl)cc4)cs3)cc21 (stereo not given) | > 50 µM (inactive)
Cc1nc(CN2CCn3c(Cn4cccn4)cnc3C2C)cs1 (stereo not given) | > 50 µM (inactive)
Cc1cccc(CNC(=O)C2CCCN(S(=O)(=O)Cc3ccc(F)cc3)C2)c1 (stereo not given) | 26.6 µM
Cc1ccc(NC(=O)Cn2c(-n3nc(C)cc3C)nc3c(c2=O)CCCC3)c(C)c1 | 35.8 µM
O=C(Nc1oc2ccccc2c(=O)c1-c1ccc2c(c1)OCO2)C1CCCCC1 | 33.1 µM
COc1ccc(NC(=O)c2[nH]nc3c2COc2ccccc2-3)c(OC)c1 | 6.94 µM
Cc1cccc(NC(=O)Cn2c(N3CCOCC3)nc3cc(C)n(C)c3c2=O)c1 | 16.3 µM
O=C(CSc1ccc(-c2cccc([N+](=O)[O-])c2)nn1)Nc1cccc(F)c1 | 2.23 µM
O=C(NCc1ccc2c(c1)OCO2)c1[nH]nc2c1COc1ccccc1-2 | 7.75 µM

SMILES | IC50
O=C(NCc1ccccc1)c1ccc2c(=O)n(-c3ccccc3)c(=O)[nH]c2c1 | 18.6 µM
Cc1sc2nc(CN3CCCC3)nc(NCCc3ccc(Cl)cc3)c2c1C | > 50 µM (inactive)
Cc1cc(C)c2nc3c(cc2c1)CN(Cc1ccco1)C(=O)O3 | > 50 µM (inactive)
COc1ccc(CC(NC(C)=O)C(=O)NC2CCN(c3c(Cc4ccccc4)c(C)nc4ncnn34)CC2)cc1OC (stereo not given) | > 50 µM (inactive)
c1ccc2c(c1)ccc1nnc(-c3ccc4c(c3)OCO4)n12 | > 50 µM (inactive)
COc1ccc(C2SCC(=O)Nc3c2c(=O)[nH]n3C2CCCCCC2)cc1 (stereo not given) | 25.7 µM
Cc1ccc(-c2cn(CC(=O)N3CCN(c4ccccn4)CC3)c(=O)o2)cc1 | 16.5 µM
Cc1cc(O)c2c3c(c(O)cc2c1)C(=O)c1c(O)cccc1C3=O | 1.89 µM
Cc1ccc(S(=O)(=O)N(C)C)cc1NC(=O)Cc1ccc(Cl)c(Cl)c1 | 0.274 µM
CS(=O)(=O)N1CCc2cc(C(=O)Nc3ccc(Cc4ccncc4)cc3)ccc21 | 8.75 µM
COCC(C)Nc1ncc(-c2cnccn2)c(-c2ccc(C)s2)n1 (stereo not given) | > 50 µM (inactive)
Cc1nn(-c2cccc(F)c2)c2c1C(C(=O)c1ccc(Cl)s1)CC(=O)N2 (stereo not given) | 48.6 µM
Cc1cccc(C(=O)Nc2cccc(SC(C(=O)Nc3ccc(O)c(C(=O)O)c3)c3ccccc3)c2)c1 (stereo not given) | 3.72 µM
Cn1c(CN2CCCCCC2)nc2cc(NC(=O)c3ccccc3)ccc21 | > 50 µM (inactive)
O=C(Nc1ccc2c(c1)OCCO2)c1ccc(N2CCCC2=O)cc1 | 7.18 µM
O=C(NCC1CC1)C1CCCN(c2ccc(-c3ccccc3)nn2)C1 (stereo not given) | > 50 µM (inactive)
CCOc1ccc2c(c1)c(=O)c(C(=O)c1ccccc1)cn2CC(=O)Nc1ccc2c(c1)OCCO2 | 24 µM
O=C(Nc1ccc(F)cc1F)NC1Cc2ccccc2C1 | 44.1 µM
CN1CC2CN(C(=O)c3ccc(F)cc3)CCN2Cc2ccccc21 (stereo not given) | > 50 µM (inactive)
O=C(Nc1ccc2c(c1)OCCO2)Nc1ccc2nc3n(c(=O)c2c1)CCCC3 | 15.1 µM
CCc1nc(-c2cc(C(=O)N3CCOCC3)c3ccccn23)cs1 | > 50 µM (inactive)
COc1ccc(NC(=O)CSc2nc(N)c3c4c(sc3n2)COC(C)(C)C4)cc1 | 45.9 µM
CCC(C)(C)C1CCC2(CC1)N=C(N)Nc1nc3ccccc3n12 (stereo not given) | 35.6 µM
COc1cccc2c1C(=O)c1ccc3c(c1C2=O)C(=O)CC(C)(O)C3 (stereo not given) | > 50 µM (inactive)
COc1cc(-c2ccno2)ccc1S(=O)(=O)Nc1ccccc1Cl | 4.26 µM
